Where two headings read alike, the source gives them in different places.
Tests used:
[1] = Stability of calcitriol in various solvent oils; type: physicochemical; conditions: RT
Description: In order to optimize the dissolution of the active agent to be incorporated into the compositions according to the invention, stability tests are performed in various solvent oils: The preparations are prepared according to the following proportions: 0.00666% of calcitriol/0.29629% of BHT, a sufficient amount of solvent oil to obtain 100%. Assay technique by HPLC against reference substance.

[2] = T 3 months, 4% hydroquinone
Description: The preparations are prepared according to the following proportions: 4% of hydroquinone, a sufficient amount of solvent oil to obtain 100%.
(§1) Assay technique by HPLC against reference substance.

[3] = Stability of rucinol in various solvent oils; type: physicochemical; conditions: 40° C., T 1 month, 5% rucinol
Description: The preparations are prepared according to the following proportions: 5% of rucinol, a sufficient amount of solvent oil to obtain 100%.
as §1

[4] = Stability of ivermectin in various solvent oils; type: physicochemical; conditions: 40° C., T 1 month, 1% ivermectin
Description: The preparations are prepared according to the following proportions: 1% of ivermectin, a sufficient amount of solvent oil to obtain 100%.
as §1

## C=C1/C(=C\C=C2/CCC[C@]3(C)[C@@H]([C@H](C)CCCC(C)(C)O)CC[C@@H]23)C[C@@H](O)C[C@@H]1O [Calcitriol, calcitriol]
[1]; solvent PPG-15 stearyl ether, T 1 month
  % Calcitriol/To: 100.00%
[1]; solvent caprylic/capric triglycerides, T 1 month, 0.00666% calcitriol, 0.29629% BHT
  % Calcitriol/To: 100.3%
[1]; solvent caprylic/capric triglycerides, T 3 months
  % Calcitriol/To: 99.9%
[1]; solvent diisopropyl adipate, T 1 month
  % Calcitriol/To: 101.5%
[1]; solvent diisopropyl adipate, T 3 months
  % Calcitriol/To: 97.2%
[1]; solvent octyldodecanol, T 1 month
  % Calcitriol/To: 98.3%
[1]; solvent octyldodecanol, T 3 months
  % Calcitriol/To: 95.00%

## Oc1ccc(O)cc1 [Hydroquinone, hydroquinone]
[2]; solvent PPG-15 stearyl ether, 40° C.
  % Hydroquinone/To: 96.00%
[2]; solvent caprylic/capric triglycerides, 40° C.
  % Hydroquinone/To: 95.00%
[2]; solvent diisopropyl adipate, temperature not given
  % Hydroquinone/To: 97.4%

## CCCCc1ccc(O)cc1O [Rucinol, rucinol]
[3]; solvent PEG-8 caprylic/capric triglycerides
  % Rucinol (% LC): 100 % LC
[3]; solvent PEG-35 castor oil
  % Rucinol (% LC): 96 % LC
[3]; solvent PPG-15 stearyl ether
  % Rucinol (% LC): 95 % LC
[3]; solvent caprylic/capric triglycerides
  % Rucinol (% LC): 99 % LC

## ivermectin
[4]; solvent PPG-15 stearyl ether
  % Ivermectin/To: 98.07%
[4]; solvent benzyl alcohol
  % Ivermectin/To: 98.6%
[4]; solvent diisopropyl adipate
  % Ivermectin/To: 96.7%
[4]; solvent phenoxyethanol
  % Ivermectin/To: 98.6%

Source: patent publication US20120004200A1, “TOPICAL PHARMACEUTICAL COMPOSITION CONTAINING A WATER-SENSITIVE ACTIVE PRINCIPLE” (GALDERMA S.A., priority 2008, published 2012)
